In patent US20110269790A1, “NOVEL THIENOPYRIDINES AS PHARMACOLOGICALLY ACTIVE AGENTS” (priority 2009, published 2011):
Values after ≈ are worked out from the molar mass of the structure shown.

Experiments:
[1] = system: crude intestinal α-glucosidase; assay: In-vitro mammalian (rat intestinal) α-glucosidase inhibition assay; type: biochemical
Description: Chemicals: α-Glucosidase [(EC 3.2.1.20) Type I: from bakers yeast], rat intestinal acetone powder (as a source of crude intestinal α-glucosidase), α-amylase [EC 3.2.1.1) Type VI B: from porcine pancreas], p-nitrophenyl α-D-glucopyranoside, 3,5-dinitro salicylic acid, soluble potato starch and 1-deoxyrojirimycine, were purchased from Sigma Chemical Co., St Louis, Mo., USA. Other chemicals of analytical grade were procured from indigenous manufacturers.
In-vitro a-Glucosidase Inhibition Assay: Yeast and intestinal a-glucosidase inhibitory activities were determined as per reported methods (Babu et al., 2004; Mc Dougall et al., 2005). Rat intestinal acetone powder in normal saline (100% w/v) was sonicated properly and the supernatant was used as a source of crude intestinal a-glucosidase after centrifugation. In brief, 20 μl, of test samples (100 mg/ml DMSO solution) were reconstituted in 100 μl of 100 mM-Phosphate buffer (pH 6.8) in a 96-well microplate and incubated with 50 μl yeast a-glucosidase (0.76 μ/ml in same buffer) or crude intestinal a-glucosidase for 5 min before 50-μl substrate (5 mM, […] prepared in same buffer) was added. Release of p-nitrophenyol was measured at 405 nm spectrophotometrically (Spectra Mas Plus 384, Molecular Device corporation, Sunnyvale, Calif., USA) 5 min after incubation with substrate, individual blank for test samples were prepared to correct background absorbance where the substrate was replaced with 50 μl of buffer. The control sample contained 20 μl DMSO in place of test samples. The percentage of enzyme inhibition was calculated as (A−B/A)×100 where A is represents the absorbance of the control without test samples, and B represents the absorbance in the presence of test samples. […] The IC50 values were calculated by applying logarithmic regression analysis from the mean inhibitory values.

Wistar rats = assay: Carrageenan induced paw edema model; type: in vivo, rat; conditions: Rattus norvegicus, test compounds 100 mg/kg oral, Indomethacin 10 mg/kg oral, 3 hrs after Carrageenan
Experimental: Male Albino Wistar rats of 150-180 grams were used for the experiments.
Anti-inflammatory activity of test compounds was evaluated in Wistar rats employing the method of Winter et al (1963) and Diwan et al (1989). Male Wistar rats were used for the study. […] The different test compounds were administered to the animals in the test group at the dose of 100 mg/kg, by oral route. Animals in the standard group received Indomethacin at the dose of 10 mg/kg, by oral route. All test and standard compounds were administered as 1% gum acacia suspension. Rats in the control group received the vehicle solution without drugs. One hour after test drugs administration, rats in all the groups were challenged with 0.1 ml of 1% Carrageenan in the sub plantar region of right hind paw. A zero hour paw volume was measured for all the rats using digital plethysmometer (Ugo Basile, Italy) before the administration of carrageenan for all groups. Paw volumes were again measured 3 hrs after the challenge of Carrageenan. The percent inhibition of paw volume for each rat in treated groups was calculated by comparing with mean paw volume of control group and expressed as mean (±SE) percent inhibition of paw volume for each test. In a preliminary study the compounds that have shown good activity were evaluated for dose response study by using above procedure.

Colo-205 (Colon cancer) = assay: MTT assay, Colo-205; type: cell-based; conditions: Homo sapiens, COLO 205; MTT, 48 hrs; read-out: Colo-205 IC50
Experimental: (§1) A431 (Skin cancer), Colo-205 (Colon cancer), A549 (Lung cancer) cell lines were obtained from National Center for Cell science (NCCS), Pune, India. DMEM (Dulbeccos Modified Eagles Medium), MTT [3-(4,5-dimethylthiazol-2-yl)-2,5-diphenyl tetrazolium bromide], Trypsin, EDTA were purchased from Sigma Chemicals Co (St. Louis, Mo.), Fetal bovine serum were purchased from Arrow labs, 96 well flat bottom tissue culture plates were purchased from Tarson.
(§2) A431, Colo-205, A549 cell lines were grown as adherent cells in DMEM media supplemented with 10% fetal bovine serum, 100 μg/ml penicillin, 200 μg/ml streptomycin, 2 mM L-glutamine, and culture was maintained in a humidified atmosphere with 5% CO2. Stock solution of 10 mg/ml was prepared for test molecules in DMSO. From the stock, various dilutions were made with sterile water to get required concentration. A431, Colo-205, A549 cell lines were seeded at a density of 1×10^4 cells (cell number was determined by Trypan blue exclusion dye method) per each well in 100 μl of DMEM supplemented with 10% FBS. 12 hrs after seeding, above media was replaced with fresh DMEM supplemented with 10% FBS. Then, 10 μl sample from above stock solutions were added to each well in triplicates which gives final concentration of 100, 50, 25, 10 μg/well. The above cells were incubated for 48 hrs at 37° C. with 5% CO2. After 48 hrs incubation the above media was replaced with 100 μl of fresh DMEM with out FBS and to this 10 μl of MTT (5 mg dissolved in 1 ml of PBS) was added and incubated for 3 hrs at 37° C. with 5% CO2. After 3 hrs of incubation, the above media was removed with multi channel pipette, then 200 μl of DMSO was added to each well and incubated at 37° C. for 15 min. Finally, the plate was read at 570 nm using spectrophotometer (Spectra Max, Molecular devices).

A549 (Lung cancer) = assay: MTT assay, A549; type: cell-based; conditions: Homo sapiens, A549; MTT, 48 hrs; read-out: A549 IC50
Experimental: as §1, §2

mice = assay: Adenosine mediated bronchoconstriction and lung inflammation in an allergic mouse model; type: in vivo; design: Total count: unit not given here; conditions: BAL fluid cells; 100 mg/kg oral
Experimental: Thienopyridines were proven as potent cytotoxic and anti-inflammatory agents in the previous experimental results. In cytotoxic MTT assay, activity of these molecules may be due to the involvement of adenosine receptors. Further, to find the bronchodilatory activity of these moieties and to find the involvement of adenosine receptors in their action, non-invasive and invasive adenosine mediated bronchoconstriction and lung inflammation in an allergic mouse model was performed.
Male mice, 6-8 weeks of age, free of specific pathogens were obtained from National Institute of Nutrition. The animals were maintained on a ragweed-free diet. All experimental protocols used in this study were under a protocol approved by animal ethical committee. Sensitization was performed according to the modified procedure described by Fan et al, 2002. Mice were sensitized on days 1 and 6 with i.p. injections of ragweed allergen (200 μg/200 μl of water for injection). Non-sensitized control animals received only water for injection with the same volumes. Ten days after sensitization, the mice were placed in plexiglas chamber and challenged with 0.5% ragweed or with 0.9% saline as a control for twenty minutes both in the morning and evening for three days. Then mice were divided into different groups consisting of six animals each. The groups including a control without sensitization; a sensitized group and a standard group along with groups of the test molecules were separated. Twenty-four hours after last challenge with ragweed, the mice were given an oral dose of test molecules and theophylline (100 mg/kg body weight) as acacia suspension. Two hours after administration of the oral dose, the mice were challenged with adenosine solution (24 mg/ml). The variation in respiration was recorded after anaesthetizing them with pentobarbitone sodium (0.1 ml 200 mg/ml ip) using kymograph. Then, mice were sacrificed and trachea was cannulated to collect the bronchoalveolar lavage fluid. This was performed by pumping 1 ml phosphate buffered saline into lungs through tracheal cannula and collecting the sample. Analysis of BAL fluid was performed to get the cellular differentials. The BAL fluid was centrifugated at 1500 rpm for six minutes at room temparature. After removing the supernatant, BAL cells were resuspended in 1 ml of phosphate buffered saline. Total cells were then counted manually in a hemocytometer chamber. A differential count of at least 300 cells was made according to the standard morphologic criteria and results were mentioned in table.

[2] = system: A431 (Skin cancer) cell lines; assay: MTT assay, A431; type: cell-based; conditions: Homo sapiens, A-431; MTT, 48 hrs; read-out: A431 cell lines IC50
Experimental: as §1, §2

In the case of `Cc1sc2nc3c(c(N)c2c1C)CCC(C)C3` (stereo not drawn) [BN-3, 2,3,7-Trimethyl-5,6,7,8-tetrahydrothieno[2,3-b]quinolin-4-amine], the melting point is reported as 220 °C, the “Mammalian α-glucosidase inhibitory activity (in words)” value [1] is reported as “moderate inhibitory activity” and the “Mammalian α Glucosidase Inhibition (Mean ± S.E)” value ([1]; highest concentration 5 mg/ml) is reported as 46.07 ± 0.9%. The change in vivo at 100 mg/kg (Wistar rats; read-out: % Increase in Paw Volume) was 81.4 ± 21%, the inhibition in vivo at 100 mg/kg (Wistar rats; read-out: % Inhibition (paw volume)) was 23.2 ± 5.15% and the IC50 (Colo-205 (Colon cancer)) was 100 mg/L (≈ 406 µM). For the same compound, the IC50 (A549 (Lung cancer)) was 43.6 mg/L (≈ 177 µM), the “Differential count (%) Eosinophils” value (mice) was 14% and the “Differential count (%) Lymphocytes” value (mice) was 75%. For the same compound, the “Differential count (%) Monocytes” value (mice) was 15%, the Total count (mice) was 14.5 and the IC50 [2] was 33.8 mg/L (≈ 137 µM).
